Values joined by “and” are separate entries in the source; they are usually repeats but may differ in a detail not shown here. Equal entries are not always repeated.
Tests used:
[1] = test system: light organ octopamine-stimulated adenylate cyclase; conditions: cited from earlier work
[2] = Tissue level of theophylline in larvae after feeding on sprayed leaves (immunoenzymatic assay); format: in vivo, Manduca sexta; conditions: 1% spray, three days of feeding; mean ± deviation, two groups of six pooled animals; 4320 min; read-out: internal theophylline concentration of larvae
Description: To determine if the dosage of xanthine derivatives described in experiments 4, 7 and 8-11 and ingested by the larvae (causing pestistatic and pesticidal activity in vivo) were actually absorbed by the animals and were sufficient to inhibit PDE in vitro, additional experiments were carried out in order to estimate tissue levels of xanthine derivative following three days of feeding on various doses of the derivative. Groups of six larvae were placed on leaves treated with vehicle or theophylline spray. After three days, leaf area was recorded and larvae (alive or dead) were rinsed to remove any compound adhering to their cuticle, homogenized whole, centrifuged, and the cell-free supernatant assayed for theophylline content by immunoenzymatic assay (Emit-AAD theophylline assay (Syva Company, Palo Alto, CA.)). […] From mammalian studies, it is known that theophylline penetrates freely into all body compartments (Rall, T. W., supra.). […] This observation tends to rule out the hypothesis wherein adenosine receptors are involved as a mechanism for the antifeeding effects of the xanthine derivatives, since, in vertebrates, xanthine derivatives such as theophylline are competitive adenosine receptor antagonists, but exert such antagonism at much lower concentrations, typically 1-25 micromoles. […]

[3] = test system: Manduca sexta (tobacco hornworm) larvae; assay: Antifeeding test: tomato leaves sprayed with compound, tobacco hornworm larvae; format: in vivo
[4] = test system: hornworm nerve cord PDE (cyclic AMP phosphodiesterase); assay: Inhibition of cyclic AMP phosphodiesterase activity in homogenates of tobacco hornworm nerve cord; format: biochemical, Manduca sexta; conditions: for activity of structurally similar compounds tested as described in Example 46: Example 47
Description: Nerve cord was dissected from 40-60 mm long M. sexta larvae, cleaned, and homogenized (2 mg/ml) in 6 Mm Tris-maleate, pH 7.4. PDE activity was measured (4 min. incubation at 30° C.) in an assay system (0.1 ml) containing 80 mM Tris-maleate, pH 7.4; 6 mM Mg--SO4; 10^-7 M^3 H-cyclic AMP; and tissue homogenate (0.02 ml). Nerve cord was evaluated in the presence and the absence of the xanthine derivative. For purposes of the evaluation, the rate of formation of ^3 H-5' AMP was measured using the technique described in Filburn, C. […] The values shown in FIG. 1D are the mean (±SEM) of three separate experiments.

[5] = test system: larvae of Manduca sexta (tobacco hornworm); assay: Feeding on artificial media containing the test material; format: in vivo; conditions: concentrations found naturally in undried tea leaves or coffee beans
Description: Various concentrations of finely powdered tea leaves or powdered coffee beans were mixed in artificial media which was then plated out in small petri dishes and allowed to harden. […] At concentrations greater than 10% (for coffee) or 3% (for tea), larvae were killed within 24 hours.
The larvae of Manduca sexta were fed on either artificial or natural food. When added to artificial media, caffeine (the major methylxanthine found in tea and coffee) exerted behavioral effects that were qualitatively similar to those of the tea and coffee described above. […] Further, the dried tea leaves, which contain 2-3 times the caffeine content of dried coffee beans, were about 2-3 times as effective as coffee beans in inhibiting weight gain. Further, the concentrations of caffeine which are found naturally in undried tea leaves (0.68-2.1%) or coffee beans (0.8-1.8%) were sufficient to kill most Manduca larvae. Thus, caffeine functions as an endogenous insecticide.

adenosine receptor = conditions: Bruns et al.; cited from earlier work
Callosobrucaus chinensis = conditions: concentration of 1.5%; cited from earlier work

Compound	potency as partial agonist relative to octopamine [1]	concentration [2] [µM]	inhibition of leaf consumption ([3]; 1% spray, three days)	Vmax (percent inhibition of feeding at the highest dose used) ([3]; highest dose usually a 3% spray solution) [%]	EC50 (spray concentration required to cause 50% inhibition of feeding) ([3]; spray on tomato leaves, calculated from dose-response curves, Manduca sexta 6 per leaf)	activity of structurally similar compounds tested as described in Example 46 [4]	inhibition of hornworm nerve cord PDE activity in vitro ([4]; at the internal concentration found (4.1 mM)) [%]	concentrations sufficient to kill most Manduca larvae [5]	weaker than theophylline as an adenosine antagonist (adenosine receptor) [fold]	sterility (Callosobrucaus chinensis) [%]	EC50 (spray concentration required to cause 50% inhibition of feeding) ([3]; in vivo)	Vmax (percent inhibition of feeding at the highest dose used) ([3]; in vivo)	antifeeding effect (in words) ([3]; in vivo)	PDE inhibition (in words) ([4]; FIG. 1D)
CNC=Nc1ccc(Cl)cc1C [DCDM, N-demethylchlordimeform]	about six-fold more potent than octopamine	–	–	–	–	–	–	–	–	–	–	–	–	–
Cn1c(=O)c2[nH]cnc2n(C)c1=O [Example 15, 1,3-dimethyl-xanthine (theophylline), reference compound]	–	4100 ± 1100	about 50%	94	1.5 % (gm/100 ml)	active	> 80	–	–	–	–	–	–	–
Cn1c(=O)c2c(ncn2C)n(C)c1=O [Example 23, 1,3,7-trimethyl-xanthine (caffeine)]	–	–	–	–	–	active	–	0.68-2.1% and 0.8-1.8%	10	~100	0.3	98	somewhat more potent than theophylline	about equally potent

Reference: US4883801A, “Xanthine derivative pest control agents” (priority 1986, dated 1989)
